Results published in PubChem BioAssay AID256 (DTP/NCI, 2004).
Several values for one entry are separate records, joined by “and”; a condition that tells them apart may be missing. Equal entries are not always repeated. Inconclusive results and toxic doses are left out.

System: CD2F1 mice, L1210 leukemia ip, survival T/C
Experiment: NCI In Vivo Anticancer Drug Screen. Data for tumor model L1210 Leukemia (intraperitoneal) in CD2F1 (CDF1) mice
Conditions: higher = longer survival
In short: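 Vehicle-treated tumor-bearing mice served as controls (C) for compound-treated mice (T). Reported figure is T divided by C.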

[1] = endpoint: mean survival time, dose: 100.0 mg/kg/injection, schedule: Q01DX009 (ip), vehicle: saline with Tween-80
[2] = endpoint: mean survival time, dose: 200.0 mg/kg/injection, schedule: Q01DX009 (ip), vehicle: saline with Tween-80
[3] = endpoint: mean survival time, dose: 100.0 mg/kg/injection, schedule: Q01DX001 (ip), vehicle: saline with Tween-80
[4] = endpoint: mean survival time, dose: 200.0 mg/kg/injection, schedule: Q01DX001 (ip), vehicle: saline with Tween-80
[5] = endpoint: mean survival time, dose: 400.0 mg/kg/injection, schedule: Q01DX001 (ip), vehicle: saline with Tween-80
[6] = endpoint: median survival time, dose: 50.0 mg/kg/injection, schedule: Q01DX005 (ip), vehicle: saline
[7] = endpoint: median survival time, dose: 100.0 mg/kg/injection, schedule: Q01DX005 (ip), vehicle: saline
[8] = endpoint: median survival time, dose: 200.0 mg/kg/injection, schedule: Q01DX005 (ip), vehicle: saline
[9] = endpoint: mean survival time, dose: 100.0 mg/kg/injection, schedule: Q04DX003 (ip), vehicle: saline with Tween-80
[10] = endpoint: mean survival time, dose: 200.0 mg/kg/injection, schedule: Q04DX003 (ip), vehicle: saline with Tween-80
[11] = endpoint: mean survival time, dose: 400.0 mg/kg/injection, schedule: Q04DX003 (ip), vehicle: saline with Tween-80
[12] = endpoint: mean survival time, dose: 400.0 mg/kg/injection, schedule: Q01DX009 (ip), vehicle: saline with Tween-80
[13] = endpoint: mean survival time, dose: 12.5 mg/kg/injection, schedule: Q04DX003 (ip), vehicle: saline with Tween-80
[14] = endpoint: mean survival time, dose: 25.0 mg/kg/injection, schedule: Q04DX003 (ip), vehicle: saline with Tween-80
[15] = endpoint: mean survival time, dose: 50.0 mg/kg/injection, schedule: Q04DX003 (ip), vehicle: saline with Tween-80
[16] = endpoint: mean survival time, dose: 100.0 mg/kg/injection, schedule: Q04DX002 (ip), vehicle: saline with Tween-80
[17] = endpoint: mean survival time, dose: 200.0 mg/kg/injection, schedule: Q04DX002 (ip), vehicle: saline with Tween-80

COC1/C=C\C=C(/C)C(=O)NC2=CC(=O)C=C(C2=O)C(OC)C(C)CC(OC)C(OC)C(C)/C=C(/C)C1OC(N)=O (stereo not drawn)
T/C (endpoint: mean survival time, dose: 0.18 mg/kg/injection, schedule: Q01DX009 (ip), vehicle: Klucel (hydroxypropylcellulose) (HPC)): 108 % of control
T/C (endpoint: mean survival time, dose: 0.37 mg/kg/injection, schedule: Q01DX009 (ip), vehicle: Klucel (hydroxypropylcellulose) (HPC)): 107 % of control
T/C (endpoint: mean survival time, dose: 0.75 mg/kg/injection, schedule: Q01DX009 (ip), vehicle: Klucel (hydroxypropylcellulose) (HPC)): 120 % of control and 98 % of control
T/C (endpoint: mean survival time, dose: 1.5 mg/kg/injection, schedule: Q01DX009 (ip), vehicle: Klucel (hydroxypropylcellulose) (HPC)): 93 % of control and 103 % of control
T/C (endpoint: mean survival time, dose: 3.0 mg/kg/injection, schedule: Q01DX009 (ip), vehicle: Klucel (hydroxypropylcellulose) (HPC)): 95 % of control and 105 % of control

CCCCNC(=S)N(CCCC)CCCC
T/C [1]: 102 % of control
T/C [2]: 87 % of control

c1ccc(C2=C(c3ccccn3)N=c3ccccc3=c3ccccc3=N2)nc1
T/C [3]: 101 % of control
T/C [4]: 111 % of control
T/C [5]: 93 % of control

Nc1nc2c(c(=O)[nH]1)CC(=O)N2
T/C [6]: 98 % of control
T/C [7]: 100 % of control
T/C [8]: 104 % of control

CSc1ccc(OC(=O)Nc2ccc(C)c([N+](=O)[O-])c2)cc1C
T/C [9]: 92 % of control
T/C [10]: 92 % of control
T/C [11]: 96 % of control

O/N=C1/CCCC/C1=C/c1ccccc1
T/C [1]: 103 % of control
T/C [2]: 97 % of control
T/C [12]: 97 % of control

O=[C-]CC(=O)c1ccccc1.O=[C-]CC(=O)c1ccccc1.[Fe+2]
T/C [3]: 95 % of control
T/C [4]: 87 % of control
T/C [5]: 89 % of control

CCOc1cccc(Cc2cn(Cc3ccccc3)c(=O)[nH]c2=O)c1
T/C [9]: 100 % of control
T/C [10]: 106 % of control
T/C [11]: 96 % of control

CCC[CH2][Sn](=[S])[CH2]CCC
T/C (endpoint: mean survival time, dose: 0.39 mg/kg/injection, schedule: Q01DX009 (ip), vehicle: other): 102 % of control
T/C (endpoint: mean survival time, dose: 0.78 mg/kg/injection, schedule: Q01DX009 (ip), vehicle: other): 100 % of control
T/C (endpoint: mean survival time, dose: 1.56 mg/kg/injection, schedule: Q01DX009 (ip), vehicle: other): 107 % of control
T/C (endpoint: mean survival time, dose: 6.25 mg/kg/injection, schedule: Q04DX003 (ip), vehicle: other): 103 % of control
T/C (endpoint: mean survival time, dose: 12.5 mg/kg/injection, schedule: Q04DX003 (ip), vehicle: other): 103 % of control

CCC[CH2][Sn]1([CH2]CCC)[O]C(=O)C2CC=CCC2C(=O)[O]1 (stereo not drawn)
T/C (endpoint: mean survival time, dose: 100.0 mg/kg/injection, schedule: Q01DX001 (ip), vehicle: saline): 102 % of control
T/C (endpoint: mean survival time, dose: 200.0 mg/kg/injection, schedule: Q01DX001 (ip), vehicle: saline): 104 % of control

O=C(O)C1CC[N-]CC1.O=C(O)C1CC[N-]CC1.[Cl][Pt+2][Cl]
T/C (endpoint: mean survival time, dose: 50.0 mg/kg/injection, schedule: Q01DX001 (ip), vehicle: saline with Tween-80): 110 % of control
T/C [9]: 107 % of control
T/C [4]: 110 % of control
T/C [2]: 97 % of control

CCCCN(C)CCNc1cc(C)nc(/N=C(\N)Nc2ccc(Cl)c(Cl)c2)n1
T/C (endpoint: mean survival time, dose: 75.0 mg/kg/injection, schedule: Q01DX001 (ip), vehicle: other): 97 % of control

O=[N+]([O-])O.[NH-]C1CCCCC1[NH-].[NH-]C1CCCCC1[NH-].[NH-]C1CCCCC1[NH-].[OH-].[OH-].[OH-].[Pt+4].[Pt+4].[Pt+4] (stereo not drawn)
T/C (endpoint: mean survival time, dose: 20.0 mg/kg/injection, schedule: Q04DX003 (ip), vehicle: water): 87 % of control

COC1=CCC2=C(C1)CC(C)O2 (stereo not drawn)
T/C (endpoint: mean survival time, dose: 100.0 mg/kg/injection, schedule: Q01DX009 (ip), vehicle: acetone): 102 % of control
T/C (endpoint: mean survival time, dose: 200.0 mg/kg/injection, schedule: Q01DX009 (ip), vehicle: acetone): 107 % of control

CCCCS.[Hg]
T/C (endpoint: mean survival time, dose: 6.25 mg/kg/injection, schedule: Q01DX009 (ip), vehicle: saline with Tween-80): 95 % of control
T/C (endpoint: mean survival time, dose: 12.5 mg/kg/injection, schedule: Q01DX009 (ip), vehicle: saline with Tween-80): 96 % of control
T/C (endpoint: mean survival time, dose: 25.0 mg/kg/injection, schedule: Q01DX009 (ip), vehicle: saline with Tween-80): 95 % of control

c1cc2c(cc1NC1=NCCO1)CCC2
T/C (endpoint: mean survival time, dose: 6.25 mg/kg/injection, schedule: Q04DX003 (ip), vehicle: saline with Tween-80): 103 % of control
T/C [13]: 108 % of control
T/C [14]: 111 % of control

C=CCNC(=S)NCCO
T/C (endpoint: mean survival time, dose: 50.0 mg/kg/injection, schedule: Q01DX009 (ip), vehicle: saline with Tween-80): 97 % of control
T/C [15]: 111 % of control
T/C [1]: 100 % of control
T/C [9]: 103 % of control
T/C [2]: 94 % of control
T/C [10]: 103 % of control

N#CSCc1ccccc1Cl
T/C (endpoint: mean survival time, dose: 2.5 mg/kg/injection, schedule: Q01DX009 (ip), vehicle: saline sonified): 91 % of control
T/C (endpoint: mean survival time, dose: 5.0 mg/kg/injection, schedule: Q01DX009 (ip), vehicle: saline sonified): 96 % of control
T/C (endpoint: mean survival time, dose: 5.0 mg/kg/injection, schedule: Q04DX003 (ip), vehicle: saline with Tween-80): 95 % of control
T/C (endpoint: mean survival time, dose: 10.0 mg/kg/injection, schedule: Q01DX009 (ip), vehicle: saline sonified): 96 % of control
T/C (endpoint: mean survival time, dose: 10.0 mg/kg/injection, schedule: Q04DX003 (ip), vehicle: saline with Tween-80): 86 % of control

O=C(O)c1ccc(S(=O)(=O)N(Cl)Cl)cc1
T/C [9]: 109 % of control
T/C [10]: 95 % of control
T/C [11]: 95 % of control

O=C(O)C1C2CC(C1C(=O)O)C(C(=O)O)C2C(=O)O (stereo not drawn)
T/C [3]: 94 % of control
T/C [1]: 87 % of control
T/C [4]: 88 % of control
T/C [2]: 87 % of control
T/C [5]: 95 % of control

OC1CC2c3ccccc3C1c1cccc[n+]12 (stereo not drawn)
T/C (endpoint: mean survival time, dose: 100.0 mg/kg/injection, schedule: Q04DX003 (ip), vehicle: Klucel (hydroxypropylcellulose) (HPC)): 94 % of control

COc1nc(OC)c2ccn(C3CC(O)C(CO)O3)c2n1 (stereo not drawn)
T/C (endpoint: median survival time, dose: 12.5 mg/kg/injection, schedule: Q01DX005 (ip), vehicle: saline): 106 % of control
T/C (endpoint: median survival time, dose: 25.0 mg/kg/injection, schedule: Q01DX005 (ip), vehicle: saline): 103 % of control
T/C [6]: 102 % of control
T/C [7]: 93 % of control
T/C [8]: 98 % of control

O=C1CC2C3=C(CCC3)CCN2C2=C1CC(OC(=O)c1ccccc1)CC2 (stereo not drawn)
T/C [13]: 90 % of control
T/C [14]: 88 % of control
T/C [15]: 94 % of control

CN1C=Cc2ccccc2C1
T/C [3]: 93 % of control
T/C [1]: 93 % of control
T/C [4]: 95 % of control
T/C [5]: 93 % of control

CS(=O)(=O)OCCN(CCOS(C)(=O)=O)c1ccc(C=Nc2ccc(C(=O)O)c(O)c2)cc1
T/C (endpoint: mean survival time, dose: 0.5 mg/kg/injection, schedule: Q01DX009 (ip), vehicle: saline): 104 % of control
T/C (endpoint: mean survival time, dose: 1.0 mg/kg/injection, schedule: Q01DX009 (ip), vehicle: saline): 101 % of control
T/C (endpoint: mean survival time, dose: 2.0 mg/kg/injection, schedule: Q01DX009 (ip), vehicle: saline): 107 % of control
T/C (endpoint: mean survival time, dose: 4.0 mg/kg/injection, schedule: Q01DX009 (ip), vehicle: saline): 104 % of control

Clc1ccccc1/C=C1/c2ccccc2-c2nc3ccccc3cc21
T/C [1]: 97 % of control
T/C [9]: 89 % of control
T/C [2]: 105 % of control
T/C [10]: 100 % of control
T/C [12]: 102 % of control
T/C [11]: 95 % of control

CCCCOP(=O)(OC)OCCCC
T/C [16]: 94 % of control
T/C [17]: 102 % of control

Cc1cc(=O)[nH]c(=S)[nH]1
T/C [3]: 98 % of control
T/C [16]: 97 % of control
T/C [4]: 95 % of control
T/C [17]: 97 % of control
T/C [5]: 88 % of control

CS(=O)(=O)Nc1ccc(Nc2c3ccccc3nc3cc(N)ccc23)cc1
T/C (endpoint: mean survival time, dose: 1.5 mg/kg/injection, schedule: Q01DX001 (ip), vehicle: saline): 160 % of control
T/C (endpoint: mean survival time, dose: 3.0 mg/kg/injection, schedule: Q01DX001 (ip), vehicle: saline): 162 % of control
T/C (endpoint: mean survival time, dose: 3.0 mg/kg/injection, schedule: Q01DX009 (ip), vehicle: saline): 152 % of control
T/C (endpoint: mean survival time, dose: 5.0 mg/kg/injection, schedule: Q01DX009 (ip), vehicle: saline): 114 % of control
T/C (endpoint: mean survival time, dose: 12.0 mg/kg/injection, schedule: Q01DX001 (ip), vehicle: saline): 175 % of control

Nc1ccc2ccc(O)cc2c1
T/C (endpoint: mean survival time, dose: 100.0 mg/kg/injection, schedule: Q01DX009 (ip), vehicle: saline): 97 % of control
T/C (endpoint: mean survival time, dose: 100.0 mg/kg/injection, schedule: Q04DX003 (ip), vehicle: saline): 103 % of control
T/C (endpoint: mean survival time, dose: 200.0 mg/kg/injection, schedule: Q04DX003 (ip), vehicle: saline): 108 % of control
